Where two headings read alike, the source gives them in different places.
Experiments:
Assay in all cases: biochemical
Set-up in all cases: In vitro kinase panel profiling, per cent remaining kinase activity at 10 uM
Plk3(h) = Plk3(h) (Homo sapiens, UniProt Q9H4B4); details: atp_concentration=70, read-out: % of control remaining
Description: (§1) We derisk potential for off-target activity by profiling the compound in a CEREP panel, a standard secondary pharmacology assessment, as well as a kinase panel to derisk a potential hinge-binding motif in our leads, and a PARP panel to derisk activity against human […]. Reassuringly, the compounds are selective, with the only off-targets being moderate human CHRM2 and KOR receptors activity associated with ASAP-0011198.

Mnk2(h) = molecular target: T1, Mnk2(h) (Homo sapiens, UniProt Q9HBH9); details: atp_concentration=120, read-out: % of control remaining
T1 construct: gene MKNK2
Description: as §1

MST1(h) = molecular target: T2, MST1(h) (Homo sapiens, UniProt Q13043); details: atp_concentration=90, read-out: % of control remaining
T2 construct: gene STK4
T2 sequence (Q13043 1-487): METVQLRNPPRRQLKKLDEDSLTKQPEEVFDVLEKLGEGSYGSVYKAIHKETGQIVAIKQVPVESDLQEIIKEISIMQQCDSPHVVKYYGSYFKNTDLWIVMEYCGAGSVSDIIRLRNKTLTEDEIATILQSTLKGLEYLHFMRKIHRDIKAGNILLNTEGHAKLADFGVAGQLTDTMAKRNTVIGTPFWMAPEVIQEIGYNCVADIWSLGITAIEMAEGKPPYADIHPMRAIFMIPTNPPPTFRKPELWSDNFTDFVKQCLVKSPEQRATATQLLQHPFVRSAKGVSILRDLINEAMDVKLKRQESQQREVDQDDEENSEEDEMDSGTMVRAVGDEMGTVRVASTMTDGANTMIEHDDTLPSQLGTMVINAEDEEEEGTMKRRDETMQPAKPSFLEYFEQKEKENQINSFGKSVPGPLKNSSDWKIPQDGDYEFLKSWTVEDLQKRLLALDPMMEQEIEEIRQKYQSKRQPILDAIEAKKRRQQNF
Description: as §1

CDK7/cyclinH/MAT1(h) = CDK7/cyclinH/MAT1(h) (Homo sapiens, UniProt P50613); details: atp_concentration=90, read-out: % of control remaining
Description: as §1

ALK(h) = ALK(h) (Homo sapiens, UniProt Q9UM73); details: atp_concentration=200, read-out: % of control remaining
Description: as §1

Lyn(h) = Lyn(h) (Homo sapiens, UniProt P07948); details: atp_concentration=70, read-out: % of control remaining
Description: as §1

Aurora-A(h) = molecular target: T3, Aurora-A(h) (Homo sapiens, UniProt O14965); details: atp_concentration=15, read-out: % of control remaining
T3 construct: gene AURKA
T3 sequence (O14965 1-403): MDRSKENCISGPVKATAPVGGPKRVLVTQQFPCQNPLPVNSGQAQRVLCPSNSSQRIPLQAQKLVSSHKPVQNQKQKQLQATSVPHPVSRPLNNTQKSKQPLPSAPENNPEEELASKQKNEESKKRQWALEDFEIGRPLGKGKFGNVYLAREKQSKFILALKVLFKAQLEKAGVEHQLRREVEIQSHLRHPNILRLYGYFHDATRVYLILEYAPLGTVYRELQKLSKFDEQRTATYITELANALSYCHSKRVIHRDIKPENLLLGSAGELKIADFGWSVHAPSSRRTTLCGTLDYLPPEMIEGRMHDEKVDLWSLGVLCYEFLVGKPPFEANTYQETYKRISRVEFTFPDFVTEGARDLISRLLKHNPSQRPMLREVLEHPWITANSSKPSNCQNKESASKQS
Description: as §1

PRAK(h) = molecular target: T4, PRAK(h) (Homo sapiens, UniProt Q8IW41); details: atp_concentration=15, read-out: % of control remaining
T4 construct: gene MAPKAPK5
T4 sequence (Q8IW41 1-473): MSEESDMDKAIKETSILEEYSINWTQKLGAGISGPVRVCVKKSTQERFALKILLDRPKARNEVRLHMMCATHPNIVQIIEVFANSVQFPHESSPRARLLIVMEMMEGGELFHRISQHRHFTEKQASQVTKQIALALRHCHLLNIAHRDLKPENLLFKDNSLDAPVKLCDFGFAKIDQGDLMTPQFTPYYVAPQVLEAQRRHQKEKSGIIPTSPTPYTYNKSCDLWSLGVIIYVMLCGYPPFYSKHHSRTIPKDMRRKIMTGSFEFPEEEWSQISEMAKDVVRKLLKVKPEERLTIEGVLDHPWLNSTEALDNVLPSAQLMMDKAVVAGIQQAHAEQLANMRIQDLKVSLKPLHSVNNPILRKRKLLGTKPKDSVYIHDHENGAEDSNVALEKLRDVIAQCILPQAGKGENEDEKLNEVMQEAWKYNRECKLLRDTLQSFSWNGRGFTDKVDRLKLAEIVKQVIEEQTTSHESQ
Description: as §1

PKA(h) = molecular target: T5, PKA(h) (Homo sapiens, UniProt P17612); details: atp_concentration=10, read-out: % of control remaining
T5 construct: gene PRKACA
Description: as §1

Chain of Plk3(h) (Q9H4B4 whole entry): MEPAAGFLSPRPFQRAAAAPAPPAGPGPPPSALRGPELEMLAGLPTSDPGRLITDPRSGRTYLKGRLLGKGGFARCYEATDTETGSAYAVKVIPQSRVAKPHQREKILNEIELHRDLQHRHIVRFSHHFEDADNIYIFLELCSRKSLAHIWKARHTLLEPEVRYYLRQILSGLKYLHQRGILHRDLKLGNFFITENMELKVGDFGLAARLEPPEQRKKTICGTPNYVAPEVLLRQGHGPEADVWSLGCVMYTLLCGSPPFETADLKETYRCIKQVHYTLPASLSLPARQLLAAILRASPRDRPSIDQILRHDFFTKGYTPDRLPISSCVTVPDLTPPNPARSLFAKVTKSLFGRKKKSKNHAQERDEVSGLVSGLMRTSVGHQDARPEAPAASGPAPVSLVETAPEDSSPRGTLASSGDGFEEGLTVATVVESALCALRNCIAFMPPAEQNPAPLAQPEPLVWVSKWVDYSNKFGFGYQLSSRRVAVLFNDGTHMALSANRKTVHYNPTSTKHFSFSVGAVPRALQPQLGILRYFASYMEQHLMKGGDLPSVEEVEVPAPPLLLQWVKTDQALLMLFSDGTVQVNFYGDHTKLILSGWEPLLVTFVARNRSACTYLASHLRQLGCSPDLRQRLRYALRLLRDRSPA
T1 sequence (Q9HBH9 whole entry): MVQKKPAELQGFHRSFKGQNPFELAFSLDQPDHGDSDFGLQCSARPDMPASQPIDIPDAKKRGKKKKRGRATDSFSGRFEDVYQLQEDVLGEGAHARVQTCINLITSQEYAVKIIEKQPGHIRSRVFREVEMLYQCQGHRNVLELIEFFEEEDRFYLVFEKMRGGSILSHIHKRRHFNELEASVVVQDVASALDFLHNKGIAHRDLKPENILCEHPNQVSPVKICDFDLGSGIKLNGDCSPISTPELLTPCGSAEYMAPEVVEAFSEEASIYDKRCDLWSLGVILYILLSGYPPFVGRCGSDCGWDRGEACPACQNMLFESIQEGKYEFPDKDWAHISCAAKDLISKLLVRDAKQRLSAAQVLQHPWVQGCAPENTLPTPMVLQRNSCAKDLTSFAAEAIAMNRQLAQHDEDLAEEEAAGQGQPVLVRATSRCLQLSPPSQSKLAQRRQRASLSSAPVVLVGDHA
Chain of CDK7/cyclinH/MAT1(h) (P50613 whole entry): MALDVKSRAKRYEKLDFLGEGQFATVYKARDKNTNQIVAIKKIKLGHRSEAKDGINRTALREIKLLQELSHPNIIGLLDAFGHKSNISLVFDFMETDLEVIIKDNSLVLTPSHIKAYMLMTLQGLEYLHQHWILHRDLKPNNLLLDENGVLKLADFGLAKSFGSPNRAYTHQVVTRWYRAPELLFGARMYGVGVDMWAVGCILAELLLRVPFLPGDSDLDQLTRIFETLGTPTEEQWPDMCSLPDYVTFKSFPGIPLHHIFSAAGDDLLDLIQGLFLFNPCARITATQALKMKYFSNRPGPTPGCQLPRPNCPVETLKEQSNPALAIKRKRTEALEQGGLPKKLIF
Chain of CDK7/cyclinH/MAT1(h) (P51946 whole entry partner): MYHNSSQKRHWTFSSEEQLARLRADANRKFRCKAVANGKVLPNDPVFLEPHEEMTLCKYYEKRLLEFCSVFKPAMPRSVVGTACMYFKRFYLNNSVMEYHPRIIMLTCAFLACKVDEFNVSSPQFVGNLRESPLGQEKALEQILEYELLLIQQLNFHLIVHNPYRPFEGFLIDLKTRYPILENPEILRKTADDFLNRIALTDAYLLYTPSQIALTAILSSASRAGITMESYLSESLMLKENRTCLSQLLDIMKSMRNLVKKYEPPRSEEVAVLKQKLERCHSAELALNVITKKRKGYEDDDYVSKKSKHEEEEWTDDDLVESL
Chain of CDK7/cyclinH/MAT1(h) (P51948 whole entry partner): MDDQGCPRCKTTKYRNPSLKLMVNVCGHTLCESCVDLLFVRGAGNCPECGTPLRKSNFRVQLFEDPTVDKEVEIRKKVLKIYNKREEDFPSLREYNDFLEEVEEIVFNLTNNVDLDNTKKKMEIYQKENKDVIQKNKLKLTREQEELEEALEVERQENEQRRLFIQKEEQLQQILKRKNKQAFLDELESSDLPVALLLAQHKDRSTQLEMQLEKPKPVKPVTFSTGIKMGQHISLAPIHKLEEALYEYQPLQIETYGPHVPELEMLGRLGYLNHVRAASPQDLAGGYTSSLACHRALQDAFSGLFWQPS
Chain of ALK(h) (Q9UM73 whole entry): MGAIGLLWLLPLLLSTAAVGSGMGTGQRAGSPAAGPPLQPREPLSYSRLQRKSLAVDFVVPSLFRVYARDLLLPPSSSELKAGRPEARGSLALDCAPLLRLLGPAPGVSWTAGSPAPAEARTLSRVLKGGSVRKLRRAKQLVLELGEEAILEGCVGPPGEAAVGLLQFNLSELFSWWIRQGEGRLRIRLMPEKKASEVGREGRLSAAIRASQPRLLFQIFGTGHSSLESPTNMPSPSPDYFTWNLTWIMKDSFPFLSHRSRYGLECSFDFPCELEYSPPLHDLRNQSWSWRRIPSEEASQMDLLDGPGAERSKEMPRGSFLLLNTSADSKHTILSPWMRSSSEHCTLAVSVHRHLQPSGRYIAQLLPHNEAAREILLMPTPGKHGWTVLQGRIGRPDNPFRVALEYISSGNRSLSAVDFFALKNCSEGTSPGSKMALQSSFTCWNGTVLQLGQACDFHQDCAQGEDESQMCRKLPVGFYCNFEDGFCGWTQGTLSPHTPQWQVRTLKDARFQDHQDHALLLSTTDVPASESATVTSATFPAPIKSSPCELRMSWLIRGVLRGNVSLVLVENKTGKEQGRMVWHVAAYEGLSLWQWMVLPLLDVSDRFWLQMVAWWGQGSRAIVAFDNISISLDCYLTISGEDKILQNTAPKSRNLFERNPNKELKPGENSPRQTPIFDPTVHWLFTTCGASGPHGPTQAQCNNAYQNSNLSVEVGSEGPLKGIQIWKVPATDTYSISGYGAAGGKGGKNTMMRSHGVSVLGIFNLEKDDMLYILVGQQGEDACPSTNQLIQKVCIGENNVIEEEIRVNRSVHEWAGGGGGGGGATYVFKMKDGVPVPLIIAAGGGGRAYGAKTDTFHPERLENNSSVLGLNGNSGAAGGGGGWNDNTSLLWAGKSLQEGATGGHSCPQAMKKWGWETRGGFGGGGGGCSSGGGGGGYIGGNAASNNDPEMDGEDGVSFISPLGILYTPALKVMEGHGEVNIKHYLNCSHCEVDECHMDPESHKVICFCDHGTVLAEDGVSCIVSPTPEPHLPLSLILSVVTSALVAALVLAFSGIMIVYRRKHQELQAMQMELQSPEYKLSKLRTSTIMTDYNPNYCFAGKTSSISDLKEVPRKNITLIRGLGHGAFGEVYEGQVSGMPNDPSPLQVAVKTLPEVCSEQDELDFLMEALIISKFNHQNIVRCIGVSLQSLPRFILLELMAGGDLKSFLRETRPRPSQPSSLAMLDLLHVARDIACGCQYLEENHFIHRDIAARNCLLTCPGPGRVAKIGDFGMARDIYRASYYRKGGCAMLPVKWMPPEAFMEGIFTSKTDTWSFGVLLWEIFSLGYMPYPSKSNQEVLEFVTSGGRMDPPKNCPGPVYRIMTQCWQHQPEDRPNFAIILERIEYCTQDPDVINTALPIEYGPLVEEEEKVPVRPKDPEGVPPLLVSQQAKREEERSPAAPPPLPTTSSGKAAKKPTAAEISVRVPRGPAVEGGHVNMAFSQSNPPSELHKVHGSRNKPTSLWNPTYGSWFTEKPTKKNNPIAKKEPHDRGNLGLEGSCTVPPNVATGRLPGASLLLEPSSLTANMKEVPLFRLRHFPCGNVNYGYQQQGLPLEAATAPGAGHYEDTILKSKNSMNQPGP
Chain of Lyn(h) (P07948 whole entry): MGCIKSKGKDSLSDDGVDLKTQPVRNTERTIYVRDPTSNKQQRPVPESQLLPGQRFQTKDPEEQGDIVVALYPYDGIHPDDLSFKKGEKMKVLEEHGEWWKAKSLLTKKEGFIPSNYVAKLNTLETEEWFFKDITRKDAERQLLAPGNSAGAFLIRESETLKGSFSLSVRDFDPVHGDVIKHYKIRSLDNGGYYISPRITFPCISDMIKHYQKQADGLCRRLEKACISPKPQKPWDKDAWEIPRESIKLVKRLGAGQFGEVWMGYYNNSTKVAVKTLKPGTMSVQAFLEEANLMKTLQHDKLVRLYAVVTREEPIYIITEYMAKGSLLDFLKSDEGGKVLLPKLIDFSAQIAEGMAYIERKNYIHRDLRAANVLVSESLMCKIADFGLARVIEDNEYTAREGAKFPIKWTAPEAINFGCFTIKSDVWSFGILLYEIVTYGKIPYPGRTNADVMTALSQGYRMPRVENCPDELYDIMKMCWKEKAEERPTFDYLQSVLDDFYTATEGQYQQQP

## CC(C)C(Nc1ncnc2[nH]ccc12)c1ccc2c(c1)S(=O)(=O)CCC2 (stereo not drawn) [ASAP-0008327]
Plk3(h); batch_name=ASAP-0008327-001
  remaining activity at 10 µM: 103%
Mnk2(h); batch_name=ASAP-0008327-001
  remaining activity at 10 µM: 89%
MST1(h); batch_name=ASAP-0008327-001
  remaining activity at 10 µM: 88%
CDK7/cyclinH/MAT1(h); batch_name=ASAP-0008327-001
  remaining activity at 10 µM: 85%
ALK(h); batch_name=ASAP-0008327-001
  remaining activity at 10 µM: 93%
Lyn(h); batch_name=ASAP-0008327-001
  remaining activity at 10 µM: 112%
Aurora-A(h); batch_name=ASAP-0008327-001
  remaining activity at 10 µM: 57%
PRAK(h); batch_name=ASAP-0008327-001
  remaining activity at 10 µM: 107%
PKA(h); batch_name=ASAP-0008327-001
  remaining activity at 10 µM: 98%

## COc1ccc([C@@H](Cc2nnn[nH]2)NC(=O)c2ncnc3[nH]ccc23)cc1 [ASAP-0008340]
Plk3(h); batch_name=ASAP-0008340-001
  remaining activity at 10 µM: 102%
Mnk2(h); batch_name=ASAP-0008340-001
  remaining activity at 10 µM: 84%
MST1(h); batch_name=ASAP-0008340-001
  remaining activity at 10 µM: 98%
CDK7/cyclinH/MAT1(h); batch_name=ASAP-0008340-001
  remaining activity at 10 µM: 91%
ALK(h); batch_name=ASAP-0008340-001
  remaining activity at 10 µM: 95%
Lyn(h); batch_name=ASAP-0008340-001
  remaining activity at 10 µM: 111%
Aurora-A(h); batch_name=ASAP-0008340-001
  remaining activity at 10 µM: 71%
PRAK(h); batch_name=ASAP-0008340-001
  remaining activity at 10 µM: 95%
PKA(h); batch_name=ASAP-0008340-001
  remaining activity at 10 µM: 105%

## CC(C)[C@@H](Nc1ncnc2[nH]c(-c3cnn(C)c3C#N)cc12)c1ccc2c(n1)OCCO2 [ASAP-0008418]
Plk3(h); batch_name=ASAP-0008418-001
  remaining activity at 10 µM: 90%
Mnk2(h); batch_name=ASAP-0008418-001
  remaining activity at 10 µM: 77%
MST1(h); batch_name=ASAP-0008418-001
  remaining activity at 10 µM: 103%
CDK7/cyclinH/MAT1(h); batch_name=ASAP-0008418-001
  remaining activity at 10 µM: 101%
ALK(h); batch_name=ASAP-0008418-001
  remaining activity at 10 µM: 103%
Lyn(h); batch_name=ASAP-0008418-001
  remaining activity at 10 µM: 61%
Aurora-A(h); batch_name=ASAP-0008418-001
  remaining activity at 10 µM: 44%
PRAK(h); batch_name=ASAP-0008418-001
  remaining activity at 10 µM: 95%
PKA(h); batch_name=ASAP-0008418-001
  remaining activity at 10 µM: 92%

## CC(C)[C@H](Nc1ncnc2[nH]ccc12)c1ccc2c(c1)S(=O)(=O)CCC2 [ASAP-0008674]
Plk3(h); batch_name=ASAP-0008674-002
  remaining activity at 10 µM: 112%
Mnk2(h); batch_name=ASAP-0008674-002
  remaining activity at 10 µM: 98%
MST1(h); batch_name=ASAP-0008674-002
  remaining activity at 10 µM: 126%
CDK7/cyclinH/MAT1(h); batch_name=ASAP-0008674-002
  remaining activity at 10 µM: 89%
ALK(h); batch_name=ASAP-0008674-002
  remaining activity at 10 µM: 100%
Lyn(h); batch_name=ASAP-0008674-002
  remaining activity at 10 µM: 104%
Aurora-A(h); batch_name=ASAP-0008674-002
  remaining activity at 10 µM: 51%
PRAK(h); batch_name=ASAP-0008674-002
  remaining activity at 10 µM: 102%
PKA(h); batch_name=ASAP-0008674-002
  remaining activity at 10 µM: 89%

From article doi:10.1101/2024.08.19.608619, “Discovery of potent SARS-CoV-2 nsp3 macrodomain inhibitors uncovers lack of translation to cellular antiviral response” (bioRxiv, 2024)
